Reference: patent US10174037B2, “Dihydropyrazolopyrimidinone compounds as PDE2 inhibitors” (Merck Sharp & Dohme Corp., priority 2015, dated 2019)

Tests used:
human PDE2A1 = human PDE2A1 (Homo sapiens (Human), UniProt O00408); experiment: PDE selectivity IMAP FP assay, human PDE2A1; assay type: biochemical; conditions: Human PDE2; Lab B; read-out: Human PDE2 Ki (nM) Lab B
Procedure, shortened: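 IMAP fluorescence polarization assay; PDE2 substrate 50 nM FAM-cAMP containing 1000 nM cGMP, enzyme diluted for 20% substrate conversion, in 10 mM Tris HCl pH 7.2, 10 mM MgCl2, 1 mM DTT. Reaction 60 min at room temperature, stopped with IMAP binding solution; polarization read after 1 h. Ki reported.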

Rhesus PDE2A3 = Rhesus PDE2A3 (Macaca mulatta, UniProt B3VTJ2); experiment: PDE2 fluorescence polarization (IMAP FP) assay, rhesus PDE2A3; assay type: biochemical, rhesus macaque; conditions: Lab B, read-out: Rhesus PDE2 Ki (nM) Lab B
Chain of Rhesus PDE2A3 (B3VTJ2 1-941): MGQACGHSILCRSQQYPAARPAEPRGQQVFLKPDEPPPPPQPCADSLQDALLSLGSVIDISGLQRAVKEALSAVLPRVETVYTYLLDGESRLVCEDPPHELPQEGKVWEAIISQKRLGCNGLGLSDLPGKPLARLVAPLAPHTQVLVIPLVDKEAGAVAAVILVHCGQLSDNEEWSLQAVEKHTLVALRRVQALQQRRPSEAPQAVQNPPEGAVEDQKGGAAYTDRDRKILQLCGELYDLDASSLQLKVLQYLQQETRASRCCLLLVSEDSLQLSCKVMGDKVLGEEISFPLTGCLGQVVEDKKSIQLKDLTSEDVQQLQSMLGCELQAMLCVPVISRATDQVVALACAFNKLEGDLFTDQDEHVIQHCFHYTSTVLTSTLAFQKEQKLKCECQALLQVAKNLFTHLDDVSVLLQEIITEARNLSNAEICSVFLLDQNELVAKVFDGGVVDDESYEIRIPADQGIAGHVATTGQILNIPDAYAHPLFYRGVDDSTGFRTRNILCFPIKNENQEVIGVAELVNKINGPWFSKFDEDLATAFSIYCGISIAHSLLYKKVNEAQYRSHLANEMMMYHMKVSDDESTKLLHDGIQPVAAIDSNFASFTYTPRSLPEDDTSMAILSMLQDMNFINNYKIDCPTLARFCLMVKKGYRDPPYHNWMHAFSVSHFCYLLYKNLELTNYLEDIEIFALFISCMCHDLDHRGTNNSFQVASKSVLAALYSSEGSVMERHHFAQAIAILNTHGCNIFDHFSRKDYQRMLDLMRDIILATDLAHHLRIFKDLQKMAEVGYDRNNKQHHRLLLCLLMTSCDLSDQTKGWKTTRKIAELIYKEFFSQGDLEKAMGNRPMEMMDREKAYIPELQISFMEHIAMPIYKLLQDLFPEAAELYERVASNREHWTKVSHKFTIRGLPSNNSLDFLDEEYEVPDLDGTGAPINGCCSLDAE

Chain of human PDE2A1 (O00408 other isoform, or with tags, fused parts or gaps): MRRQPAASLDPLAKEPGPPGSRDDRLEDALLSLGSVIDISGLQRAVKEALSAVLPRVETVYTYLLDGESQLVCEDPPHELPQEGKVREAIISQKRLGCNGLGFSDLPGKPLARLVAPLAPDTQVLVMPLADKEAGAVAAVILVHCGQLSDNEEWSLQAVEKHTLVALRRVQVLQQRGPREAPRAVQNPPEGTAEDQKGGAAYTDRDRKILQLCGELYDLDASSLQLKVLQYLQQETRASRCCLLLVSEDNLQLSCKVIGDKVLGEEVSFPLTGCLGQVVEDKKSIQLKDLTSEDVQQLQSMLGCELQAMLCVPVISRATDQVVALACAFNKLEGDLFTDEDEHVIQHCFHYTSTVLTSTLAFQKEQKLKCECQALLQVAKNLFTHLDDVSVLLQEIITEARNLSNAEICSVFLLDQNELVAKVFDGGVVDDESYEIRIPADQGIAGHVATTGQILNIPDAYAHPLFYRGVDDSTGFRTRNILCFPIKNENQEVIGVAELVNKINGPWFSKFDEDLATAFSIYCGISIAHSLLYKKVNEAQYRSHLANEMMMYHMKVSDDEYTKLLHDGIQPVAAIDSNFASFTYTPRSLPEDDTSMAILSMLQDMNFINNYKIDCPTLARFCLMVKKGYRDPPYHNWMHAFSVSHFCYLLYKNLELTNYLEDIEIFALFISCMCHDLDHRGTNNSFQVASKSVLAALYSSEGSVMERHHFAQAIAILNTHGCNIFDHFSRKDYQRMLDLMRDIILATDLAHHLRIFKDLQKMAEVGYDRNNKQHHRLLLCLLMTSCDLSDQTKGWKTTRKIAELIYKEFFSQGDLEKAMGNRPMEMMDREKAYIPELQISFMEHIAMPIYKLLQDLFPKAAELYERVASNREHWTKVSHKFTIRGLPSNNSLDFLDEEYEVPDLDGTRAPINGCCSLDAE

CCC(c1ccc(C(F)(F)F)cc1)n1nc(CO)c2c(=O)[nH]c(N(C)C)nc21 (single isomer, unassigned) [Example 73, (S)- or (R)-6-(Dimethylamino)-3-(hydroxymethyl)-1-(1-(4-(trifluoromethyl)phenyl)propyl)-1H-pyrazolo[3,4-d]pyrimidin-4(5H)-one]
Ki (human PDE2A1): 0.16 nM | Ki (Rhesus PDE2A3): 0.25 nM

CN(C)c1nc2c(c(CO)nn2C(c2ccc(C(F)(F)F)cc2)C2CC2)c(=O)[nH]1 (single isomer, unassigned) [Example 74, (R)- or (S)-1-(Cyclopropyl(4-(trifluoromethyl)phenyl)methyl)-6-(dimethylamino)-3-(hydroxymethyl)-1H-pyrazolo[3,4-d]pyrimidin-4(5H)-one]
Ki (human PDE2A1): 0.17 nM | Ki (Rhesus PDE2A3): 0.15 nM

CN(C)c1nc2c(c(CO)nn2C(c2ccc(C(F)(F)F)cc2)C2CC2)c(=O)[nH]1 (single isomer, unassigned) [Example 75, (S)- or (R)-1-(Cyclopropyl(4-(trifluoromethyl)phenyl)methyl)-6-(dimethylamino)-3-(hydroxymethyl)-1H-pyrazolo[3,4-d]pyrimidin-4(5H)-one]
Ki (human PDE2A1): 1.1 nM | Ki (Rhesus PDE2A3): 0.79 nM

CC(C)c1ccc(C(C2CC2)n2nc(CO)c3c(=O)[nH]c(N(C)C)nc32)cc1 (single isomer, unassigned) [Example 76, (R)- or (S)-1-(Cyclopropyl(4-isopropylphenyl)methyl)-6-(dimethylamino)-3-(hydroxymethyl)-1H-pyrazolo[3,4-d]pyrimidin-4(5H)-one]
Ki (human PDE2A1): 0.22 nM | Ki (Rhesus PDE2A3): 0.21 nM

CC(C)c1ccc(C(C2CC2)n2nc(CO)c3c(=O)[nH]c(N(C)C)nc32)cc1 (single isomer, unassigned) [Example 77, (S)- or (R)-1-(Cyclopropyl(4-isopropxlphenyl)methyl)-6-(dimethylamino)-3-(hydroxymethyl)-1H-pyrazolo[3,4-d]pyrimidin-4(5H)-one]
Ki (human PDE2A1): 0.069 nM | Ki (Rhesus PDE2A3): 0.084 nM

CC(C)c1ccc(C(C(C)C)n2nc(CO)c3c(=O)[nH]c(N(C)C)nc32)cc1 (single isomer, unassigned) [Example 78, (R)- or (S)-6-(Dimethylamino)-3-(hydroxymethyl)-1-(1-(4-isopropylphenyl)-2-methylpropyl)-1H-pyrazolo[3,4-d]pyrimidin-4(5H)-one]
Ki (human PDE2A1): 0.11 nM | Ki (Rhesus PDE2A3): 0.14 nM

CC(C)c1ccc(C(C(C)C)n2nc(CO)c3c(=O)[nH]c(N(C)C)nc32)cc1 (single isomer, unassigned) [Example 79, (S)- or (R)-6-(Dimethylamino)-3-(hydroxymethyl)-1-(1-(4-isopropylphenyl)-2-methylpropyl)-1H-pyrazolo[3,4-d]pyrimidin-4(5H)-one]
Ki (human PDE2A1): 0.044 nM | Ki (Rhesus PDE2A3): 0.054 nM

CC(c1ccc(C(F)(F)F)cc1F)n1nc(CO)c2c(=O)[nH]c(N(C)C)nc21 (single isomer, unassigned) [Example 81, (S)- or (R)-6-(Dimethylamino)-1-(1-(2-fluoro-4-(trifluorornethyl)phenyl)ethyl)-3-(hyrdroxymethyl)-1H-pyrazolo[3,4-d]pyrimidin-4(5H)-one]
Ki (human PDE2A1): 0.29 nM | Ki (Rhesus PDE2A3): 0.25 nM

CC(c1ccc(C(F)F)cc1)n1nc(CO)c2c(=O)[nH]c(N(C)C)nc21 (single isomer, unassigned) [Example 83, (S)- or (R)-1-(1-(4-(Difluoromethyl)phenyl)ethyl)-6-(dimethylamino)-3-(hydroxymethyl)-1H-pyrazolo[3,4-d]pyrimidin-4(5H)-one]
Ki (human PDE2A1): 0.86 nM | Ki (Rhesus PDE2A3): 1.1 nM

CC(c1ccc(OC(F)(F)F)c(F)c1)n1nc(CO)c2c(=O)[nH]c(N(C)C)nc21 (single isomer, unassigned) [Example 84, (R)- or (S)-6-(Dimethylamino)-1-(1-(3-fluoro-4-(trifluoromethoxy)phenyl)ethyl)-3-(hydroxymethyl)-1H-pyrazolo[3,4-d]pyrimidin-4(5H)-one]
Ki (human PDE2A1): 0.68 nM | Ki (Rhesus PDE2A3): 1 nM

CC(c1ccc(OC(F)(F)F)c(F)c1)n1nc(CO)c2c(=O)[nH]c(N(C)C)nc21 (single isomer, unassigned) [Example 85, (S)- or (R)-6-(Dimethylamino)-1-(1-(3-fluoro-4-(trifluoromethoxy)phenyl)ethyl)-3-(hydroxymethyl)-1H-pyrazolo[3,4-d]pyrimidin-4(5H)-one]
Ki (human PDE2A1): 0.24 nM | Ki (Rhesus PDE2A3): 0.3 nM

CN(C)c1nc2c(c(CO)nn2C(c2ccc(CC(F)(F)F)cc2)C2CC2)c(=O)[nH]1 (single isomer, unassigned) [Example 86, (R)- or (S)-1-(Cyclopropyl(4-(2,2,2-trifluoroethyl)phenyl)methyl)-6-(dimethylamino)-3-(hydroxymethyl)-1H-pyrazolo[3,4-d]pyrimidin-4(5H)-one]
Ki (human PDE2A1): 0.57 nM | Ki (Rhesus PDE2A3): 0.91 nM

CN(C)c1nc2c(c(CO)nn2C(c2ccc(CC(F)(F)F)cc2)C2CC2)c(=O)[nH]1 (single isomer, unassigned) [Example 87, (S)- or (R)-1-(Cyclopropyl(4-(2,2,2-trifluoroethyl)phenyl)methyl)-6-(dimethylainino)-3-(hydroxymethyl)-1H-pyrazolo[3,4-d]pyrimidin-4(5H)-one]
Ki (human PDE2A1): 0.38 nM | Ki (Rhesus PDE2A3): 0.4 nM

CC(C)C(c1ccc(C(F)F)cc1)n1nc(CO)c2c(=O)[nH]c(N(C)C)nc21 (single isomer, unassigned) [Example 90, (R)- or (S)-1-(1-(4-(Difluoromethyl)phenyl)-2-methylpropyl)-6-(dimethylamino)-3-(hydroxymethyl)-1H-pyrazolo[3,4-d]pyrimidin-4(5H)-one]
Ki (human PDE2A1): 1.1 nM | Ki (Rhesus PDE2A3): 2.3 nM

CC(C)C(c1ccc(C(F)F)cc1)n1nc(CO)c2c(=O)[nH]c(N(C)C)nc21 (single isomer, unassigned) [Example 91, (S)- or (R)-1-(1-(4-(Difluoromethyl)phenyl)-2-methylpropyl)-6-(dimethylamino)-3-(hydroxymethyl)-1H-pyrazolo[3,4-d]pyrimidin-4(5H)-one]
Ki (human PDE2A1): 0.18 nM | Ki (Rhesus PDE2A3): 0.18 nM

CCC(c1ccc(C(F)F)cc1)n1nc(CO)c2c(=O)[nH]c(N(C)C)nc21 (single isomer, unassigned) [Example 93, (S)- or (R)-1-(1-(4-(Difluoromethyl)phenyl)propyl)-6-(dimethylamino)-3-(hydroxymethyl)-1H-pyrazolo[3,4-d]pyrimidin-4(5H)-one]
Ki (human PDE2A1): 0.42 nM | Ki (Rhesus PDE2A3): 0.55 nM

CN(C)c1nc2c(c(CO)nn2C(c2ccc(CC(F)(F)F)c(F)c2)C2CC2)c(=O)[nH]1 (single isomer, unassigned) [Example 94, (R)- or (S)-1-(Cyclopropyl(3-fluoro-4-(2,2,2-trifluoroethyl)phenyl)methyl)-6-(dimethylamino)-3-(hydroxymethyl)-1H-pyrazolo[3,4-d]pyrimidin-4(5H)-one]
Ki (human PDE2A1): 0.14 nM | Ki (Rhesus PDE2A3): 0.15 nM

CN(C)c1nc2c(c(CO)nn2C(c2ccc(CC(F)(F)F)c(F)c2)C2CC2)c(=O)[nH]1 (single isomer, unassigned) [Example 95, (S)- or (R)-1-(Cyclopropyl(3-fluoro-4-(2,2,2-trifluoroethyl)phenyl)methyl)-6-(dimethylamino)-3-(hydroxymethyl)-1H-pyrazolo[3,4-d]pyrimidin-4(5H)-one]
Ki (human PDE2A1): 0.39 nM | Ki (Rhesus PDE2A3): 0.44 nM

CCC(c1ccc(CC(F)(F)F)c(F)c1)n1nc(CO)c2c(=O)[nH]c(N(C)C)nc21 (single isomer, unassigned) [Example 97, (S)- or (R)-6-(Dimethylamino)-1-(1-(3-fluoro-4-(2,2,2-trifluoroethyl)phenyl)propyl)-3-(hydroxymethyl)-1H-pyrazolo[3,4-d]pyrimidin-4(5H)-one]
Ki (human PDE2A1): 0.09 nM | Ki (Rhesus PDE2A3): 0.11 nM

CC(c1ccc(CC(F)(F)F)c(F)c1)n1nc(CO)c2c(=O)[nH]c(N(C)C)nc21 (single isomer, unassigned) [Example 100, (R)- or (S)-6-(Dimethylamino)-1-(1-(3-fluoro-4-(2,2,2-trifluoroethyl)phenyl)ethyl)-3-(hydroxymethyl)-1H-pyrazolo[3,4-d]pyrimidin-4(5H)-one]
Ki (human PDE2A1): 0.88 nM | Ki (Rhesus PDE2A3): 1.1 nM

CC(c1ccc(CC(F)(F)F)c(F)c1)n1nc(CO)c2c(=O)[nH]c(N(C)C)nc21 (single isomer, unassigned) [Example 101, (S)- or (R)-6-(Dimethylamino)-1-(1-(3-fluoro-4-(2,2,2-trifluoroethyl)phenyl)ethyl)-3-(hydroxymethyl)-1H-pyrazolo[3,4-d]pyrimidin-4(5H)-one]
Ki (human PDE2A1): 0.29 nM | Ki (Rhesus PDE2A3): 0.35 nM

CC(c1ccc(C(C)(F)F)cc1)n1nc(CO)c2c(=O)[nH]c(N(C)C)nc21 (single isomer, unassigned) [Example 103, (S)- or (R)-1-(1-(4-(1,1-Difluoroethyl)phenyl)ethyl)-6-(dimethylamino)-3-(hydroxymethyl)-1H-pyrazolo[3,4-d]pyrimidin-4(5H)-one]
Ki (human PDE2A1): 0.28 nM | Ki (Rhesus PDE2A3): 0.3 nM

CC(c1ccc(C(F)F)c(F)c1)n1nc(CO)c2c(=O)[nH]c(N(C)C)nc21 (single isomer, unassigned) [Example 105, (S)- or (R)-1-(1-(4-(Difluoromethyl)-3-fluorophenyl)ethyl)-6-(dimethylamino)-3-(hydroxymethyl)-1H-pyrazolo[3,4-d]pyrimidin-4(5H)-one]
Ki (human PDE2A1): 1.1 nM | Ki (Rhesus PDE2A3): 1.6 nM

CC(c1ccc(C(C)(F)F)c(F)c1)n1nc(CO)c2c(=O)[nH]c(N(C)C)nc21 (single isomer, unassigned) [Example 106, (R)- or (S)-1-(1-(4-(1,1-Difluoroethyl)-3-fluorophenyl)ethyl)-6-(dimethylamino)-3-(hydroxymethyl)-1H-pyrazolo[3,4-d]pyrimidin-4(5H)-one]
Ki (human PDE2A1): 3.6 nM | Ki (Rhesus PDE2A3): 6.2 nM
